Values of other authors, collected in patent US20250319084A1, “ENDOCRINE THERAPY AND ABEMACICLIB COMBINATION FOR THE ADJUVANT TREATMENT OF NODE-POSITIVE, EARLY STAGE, HORMONE RECEPTOR-POSITIVE, HUMAN EPIDERMAL GROWTH FACTOR RECEPTOR 2-NEGATIVE BREAST CANCER” (Eli Lilly and Company, priority 2017, published 2025).
Like-named read-outs stand apart in the source and are kept apart here.

What was measured:
[1] = tested on: early neoadjuvant breast cancer; conditions: 150 mg twice daily, as monotherapy and in combination with anastrozole
[2] = tested on: 46 breast cancer cell lines; conditions: panel of 46 breast cancer cell lines representing known molecular subgroups
[3] = tested on: HR+metastatic breast cancer; conditions: MONARCH 1 Phase 2, single agent, 200-mg dose twice daily, heavily pretreated HR+ metastatic breast cancer refractory to endocrine therapy
[4] = tested on: human cancer xenografts, including breast cancer; conditions: multiple murine xenograft models for human cancer
[5] = nonclinical species
[6] = tested on: HR+metastatic breast cancer; conditions: JPBA Phase 1b, continuously dosed single agent, across dose levels, heavily pretreated HR+ metastatic breast cancer refractory to endocrine therapy
[7] = tested on: HR+ early breast cancer involving axillary lymph nodes

SMILES	safety profile [1]	reduction of tumor cell proliferation marker (Ki67 index) ([1]; versus anastrozole alone)	growth inhibition in vitro (sensitivity by subgroup) [2]	response rate [3] [%]	tumor growth inhibition [4]	tolerability (HR+mBC; JPBH Phase 1b, combined with standard endocrine therapies)	most common adverse events (HR+mBC; JPBH, abemaciclib plus endocrine therapy, predominantly low-grade severity, appear dose-dependent)	toxicity profile [5]	response rate [6] [%]	4-year disease-free survival ([7]; BIG 1-98, patients with higher Ki67 values (>11%)) [%]	4-year disease-free survival ([7]; BIG 1-98, patients with low (≤11%) Ki67 levels at baseline) [%]
CCN1CCN(Cc2ccc(Nc3ncc(F)c(-c4cc(F)c5nc(C)n(C(C)C)c5c4)n3)nc2)CC1 [Abemaciclib, [5-(4-ethyl-piperazin-1-ylmethyl)-pyridin-2-yl]-[5-fluoro-4-(7-fluoro-3-isopropyl-2-methyl-3H-benzoimidazol-5-yl)-pyrimidin-2-yl]-amine]	acceptable safety profile	to a significantly greater extent than anastrozole alone	sensitivity to CDK4 and CDK6 inhibition is greater in ER+breast cancers with luminal histology	19.7	significantly inhibit tumor growth	tolerable	fatigue, nausea, diarrhea, leukopenia, lymphopenia, neutropenia, and anemia	acceptable toxicity profile	33.3	–	–
N#Cc1ccc(C(c2ccc(C#N)cc2)n2cncn2)cc1 [letrozole]	–	–	–	–	–	–	–	–	–	85	93
